The values that follow come from article PMC8639922, “KSHV transactivator-derived small peptide traps coactivators to attenuate MYC and inhibits leukemia and lymphoma cell growth” (Communications Biology, 2021).

Experiment [1] has as its system KSHV PAN RNA in BC-1. The experiment can be described thus: KSHV PAN RNA qRT-PCR (reactivation). It is filed as cell-based. The following applies: BC-1, 16 μM, 24 h. As for the experimental part: (§1) Because VGN50 is derived from the KSHV transactivator sequence, we next examined if VGN50 can inhibit KSHV lytic replication by competitively blocking the coactivator binding to K-Rta. To study this, we used the TREx-K-Rta BCBL-1 cell line, in which we can trigger the expression of exogenous Flag-tagged K-Rta in a doxycycline (Dox) inducible manner. TREx-K-Rta BCBL-1 cells were treated with […] VGN50 or mutant peptide, with or without Dox induction. We used approximately one-half of the IC50 concentration of VGN50 to treat the TREx-K-Rta BCBL-1 cells in order to avoid cell toxicity effects that would non-specifically decrease viral gene expression. KSHV gene expression was profiled with a KSHV genome-wide PCR array, using ribosomal rRNA for normalization and as an internal control. Fold activation relative to the uninduced Mut-P-treated sample (not induced: Dox -) was determined and a heatmap for KSHV lytic gene expression was generated (Fig. 3a). […] Immunoblotting was used to confirm the induction of lytic replication by Dox based on exogenous K-Rta protein (Flag-K-Rta) and the expression of two other KSHV lytic proteins (ORF57 and K-bZIP) along with actin and KSHV LANA protein as controls for equal loading and similar viral copy numbers in samples, respectively (Fig. 3b).
(§2) Fig. 3 Effects of VGN50 on KSHV gene transcription and VGN50 binding with SWI/SNF components. a KSHV qRT-PCR array analysis was used to study effects of VGN50 on KSHV gene transcription in a genome-wide manner. Uninduced (−; no doxycycline added) or dox-induced (+; 1 μg/ml) cells were treated with VGN50 or the mutant peptide (Mut-P) at a concentration of 24 μM. Samples were collected at 24 h post-treatment. Expression in uninduced cells was set as 1 for each viral gene and expression shown as fold activation relative to no-Dox samples. Selected cellular genes were also included in the PCR array for comparison. 18S ribosomal RNA was used as an internal control. b KSHV protein expression. Immunoblotting was performed to confirm both endogenous and exogenous K-Rta expression before (not induced) and after induction by Dox treatment (Dox-induced). Latent KSHV protein LANA and actin were used as controls for KSHV copy number (LANA) and loading (actin), respectively. Protein samples were collected 48-h post Dox incubation. c KSHV reactivation by VGN50 incubation. BCBL-1 and BC-1 cell lines were treated with VGN50 (16 μM concentration) and total RNA harvested at 24 h post treatment. KSHV PAN RNA expression was examined by qRT-PCR and relative expression over 18S rRNA is shown. Data are presented as mean ± SD (n = 3). d Purification of recombinant SWI/SNF components. SDS-PAGE analysis of five SWI/SNF components individually prepared from baculovirus-infected Sf9 cells. e A schematic illustration of ELISA assay to evaluate VGN50 and SWI/SNF interaction. f Analysis of VGN50 binding to SWI/SNF components by ELISA. Increasing concentrations of biotin-conjugated VGN50 or Mut-P were incubated in duplicate in an ELISA plate coated with each SWI/SNF component. Peptide binding measured as OD values at 450 nm are shown. Mean OD values were compared between the VGN50 and Mut-P in each concentration using unpaired t-test. **p < 0.01, *p < 0.05, NS no significance. Data are presented as mean ± SD with duplicated samples and repeated three times with different purified protein preps.
On the technique in general: Quantitative PCR measures a nucleic acid by following its amplification.

For experiment [2], the system named is KSHV PAN RNA in BCBL-1. Kind of experiment: KSHV PAN RNA qRT-PCR (reactivation). The format is cell-based. To be noted: BCBL-1, 16 μM, 24 h. As for the experimental part:
as §1, §2

Experiment [3] relates to BC-1. Kind of experiment: Flow cytometry, apoptosis induction (Annexin V staining). It is filed as cell-based, human. To be noted: BC-1, 24 h, AnnexinV+ 7AAD-. As for the experimental part:
(§3) Leukoreduction system chambers (LRS) from healthy donors were purchased from Vitalant. Peripheral blood mononuclear cells (PBMCs) were prepared by a standard Ficoll gradient method. PBMCs along with THP-1 and BCBL-1 cell lines (2 × 10^6 cells/ml, 0.2 ml 10% FBS/RPMI/DMEM per well of a 96-well plate) were treated with various doses (0–256 μM) of either VGN50 peptide or control mutant peptide for 24 h. Cell death, apoptosis, and proliferation were analyzed by flow cytometry (BD Acuri) after intracellular staining with anti-humanKi67-Alexa488 (Biolegend, 1:100) along with the isotype control antibody, annexin-V-FITC with 7-AAD staining (Biolegend) according to the manufacture’s protocol, Live/dead Fixable Red Dead Cell staining kit (Invitrogen) according to the manufacture’s protocol, or MTT assay. Peptides were commercially synthesized (GenScript) with >90% purity with TFA removal.
(§4) AnnexinV+ 7AAD- % = apoptosis % […]
(§5) S-Figure 3. Flow cytometry analyses
(§6) (a) Apoptosis (%) was determined as Annexi nV+ 7AAD- popul at i on gat ed i n r ed shown i n
(§7) representative FACS plots of BCBL-1 cel l s t r eat ed wi t h PBS or VGN50 at 32µM. […]

Experiment [4] has as its system BCBL-1. The experiment is described as above. The format is cell-based, human. The following applies: BCBL-1, 24 h, AnnexinV+ 7AAD-. As to the method:
as §3, §4, §5, §6, §7

Square brackets hold non-standard residues; d marks the D form. Peptide text beside a SMILES is read from it. Orn = NCCC[C@H](N)C(=O)O; βAla = NCCC(=O)O

`CC(C)C[C@H](NC(=O)CCNC(=O)[C@H](CCCNC(=N)N)NC(=O)[C@H](CCCNC(=N)N)NC(=O)[C@H](CCCNC(=N)N)NC(=O)[C@H](CCCN)NC(=O)[C@H](CCCNC(=N)N)NC(=O)[C@H](CCCNC(=N)N)NC(=O)[C@H](CCCCN)NC(=O)[C@H](CCCCN)NC(=O)[C@H](N)CCCNC(=N)N)C(=O)N[C@@H](CO)C(=O)N[C@@H](CO)C(=O)N[C@@H](C)C(=O)N[C@@H](C)C(=O)N[C@@H](C)C(=O)NCC(=O)N[C@@H](CC(C)C)C(=O)N[C@@H](Cc1ccc(O)cc1)C(=O)N[C@@H](CCC(N)=O)C(=O)N[C@@H](CC(C)C)C(=O)N[C@@H](CC(=O)O)C(=O)N[C@H](C(=O)O)[C@@H](C)O` [Mt-P] (H-[dR]KKRR[Orn]RRR[βAla]LSSAAAGLYQLDT-OH; N-terminus and C-terminus assumed): the “KSHV PAN RNA relative expression over 18S rRNA” value in experiment [1] (replicate 1) is 1.419e-5; in experiment [1] (replicate 2) it was 1.503e-5; in experiment [1] (replicate 3), 1.204e-5; in experiment [2] (replicate 1), 0.0001238; in experiment [2] (replicate 2) it was 0.0001335; in experiment [2] (replicate 3), 0.0001325. The “AnnexinV+%” value in experiment [3] (replicate 1) is given as 4.73%; in experiment [3] (replicate 2) it was 4.24%; in experiment [3] (replicate 3) it was 4.01%; in experiment [4] (replicate 1), 3.66%; in experiment [4] (replicate 2), 5.9%; in experiment [4] (replicate 3), 4.52%.
